Test results: patent US20240342161A1, “BISBENZYLISOQUINOLINES AS CONDITIONING AGENTS FOR IMMUNE THERAPY” (priority 2023, published 2024)
Where “and” joins values, the source holds several entries; their conditions need not be identical. Equal entries are not always repeated.

Experiments:
CAMKII gamma = biological target: T1, CAMKII gamma (Homo sapiens, UniProt Q13555); test: CAMKII gamma kinase activity (ADP Glo); format: biochemical; conditions: for units: duplicate reactions
T1 construct: purchased Promega V3531
T1 sequence (Q13555 whole entry): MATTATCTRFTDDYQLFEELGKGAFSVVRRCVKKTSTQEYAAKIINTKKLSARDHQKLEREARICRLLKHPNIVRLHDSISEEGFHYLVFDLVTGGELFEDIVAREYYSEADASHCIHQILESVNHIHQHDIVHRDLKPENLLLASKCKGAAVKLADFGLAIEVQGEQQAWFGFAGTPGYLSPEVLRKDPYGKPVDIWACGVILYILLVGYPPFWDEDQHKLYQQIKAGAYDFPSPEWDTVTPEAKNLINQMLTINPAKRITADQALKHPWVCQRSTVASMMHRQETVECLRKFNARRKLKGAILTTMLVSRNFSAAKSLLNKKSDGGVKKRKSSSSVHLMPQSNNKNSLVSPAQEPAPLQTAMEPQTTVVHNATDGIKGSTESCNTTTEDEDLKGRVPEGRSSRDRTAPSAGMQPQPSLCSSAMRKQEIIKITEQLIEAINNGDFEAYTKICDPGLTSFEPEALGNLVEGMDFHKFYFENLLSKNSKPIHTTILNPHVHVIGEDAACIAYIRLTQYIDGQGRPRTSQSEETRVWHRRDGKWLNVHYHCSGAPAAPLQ
Description: An enzymatic study was conducted to evaluate the inhibition of CAMKII gamma by ES-3000 (Tetrandrine). CAMKII gamma kinase activity was measured using […] purchased from Promega following the Promega protocol. CAMKII enzyme system purchased from Promega (V3531). ADP Glo was used for detection. Assay optimized for linearity of protein and time. Conditions for inhibitor screening 25 ng CAMKII, 20 min. incubations, inhibitor or DMSO (5%) at RT in 20 uL total volume. Inhibitor, ATP (10 or 50 μM), substrates and buffer added to tubes and reactions started with enzyme. […] Reactions terminated at 20 min. by adding ADP Glo reaction following manufactures instructions. All reactions were done in duplicate. Calculations of percent (%) inhibition determined by dividing the mean activity at each condition by the mean of the DMSO control times 100.

bcr-abl = test: qPCR assay for bcr-abl in plucked CML colonies; format: cell-based, human; conditions: Secondary colonies, 10 μM, number of colonies; listed as Tetrandrine
Description: To determine whether a colony was normal (bcr-abl negative and abl positive) or diseased (bcr-abl and abl positive), a TaqMan®-based qPCR test was used. In order to score the colonies positive or negative, the following scoring strategy was performed. All colonies were assayed in duplicate for each target. If a singleton reaction yielded a Ct then the reaction scored a 1. If no Ct was recorded, a score of 0 was given. From here, we used a logic test to score the colonies into four different categories: bcr-abl and abl, abl only, bcr-abl only or both negative. In order to be placed in a category, a colony must score a 1 in both reactions. However, if a colony only scored a 1 for one out of the two reactions, this colony was removed from the analysis. […] Alternatively, if a colony scored a 1 in only both of the bcr-abl reactions or a 1 in only both the abl reactions, the colony was placed in the bcr-abl only or abl only category, respectively. If the colony scored a 0 for both targets (bcr-abl and abl) then the colony was placed in the both negative category.
In total 48 primary colonies and 31 secondary replated colonies were assessed for bcr-abl and abl using qPCR. […] Thirteen secondary colonies treated with Tetrandrine at 10 μM were assessed.

β-catenin = β-catenin protein level in K562 cell extracts by western blot; format: cell-based, human
Description: The second portion was to quantitate the levels of β-catenin protein by western blot. TET's ability in an in vitro assay to reduce β-catenin expression was tested in human erythroleukemic (K562) cells. Testing was conducted by Alamo Laboratories, San Antonia, TX.
Briefly, the method to quantitate β-catenin protein by western blot was as follows: Extracts of K562 cells (untreated and treated with various concentrations of tetrandrine) were concentrated to 0.4 ml using Centricon-3 column to yield a protein concentration of approximately 2 mg/ml. Samples were mixed with 5× Laemmli buffer and loaded on 8-16% Tris-Glycine gradient gel, then polyacrylamide gel electrophoresis (PAGE) was run at 85 volts for 100 minutes at 6° C. and proteins were transferred on PVDF membrane at 70 Volts for 85 minutes at 8° C. Membrane was blocked with 5% milk in Tris-buffered Saline containing 0.1% TW-20 (TBST). Membrane was incubated with primary antibody for 18 hours at 4° C. followed by 3 washes, 5 minutes each, with TBST and incubated with secondary antibody in TBST for 2 hours at 25° C. The membrane was washed again with TBST as described above and incubated with ECL-2 substrate for 5 minutes and scanned on Kodak Image Station. After scan, blot was stripped of primary and secondary antibodies and re-probed with anti-beta Actin antibody as described above. Protein bands in WB images were quantitated using Molecular Imaging software pack MIS-4.0 software and tabulated in Excel spreadsheet.

P-glycoprotein (P-gp) = P-glycoprotein (P-gp) (Homo sapiens, UniProt P08183); conditions: cited from earlier work
P-glycoprotein (P-gp), sequence (P08183 whole entry): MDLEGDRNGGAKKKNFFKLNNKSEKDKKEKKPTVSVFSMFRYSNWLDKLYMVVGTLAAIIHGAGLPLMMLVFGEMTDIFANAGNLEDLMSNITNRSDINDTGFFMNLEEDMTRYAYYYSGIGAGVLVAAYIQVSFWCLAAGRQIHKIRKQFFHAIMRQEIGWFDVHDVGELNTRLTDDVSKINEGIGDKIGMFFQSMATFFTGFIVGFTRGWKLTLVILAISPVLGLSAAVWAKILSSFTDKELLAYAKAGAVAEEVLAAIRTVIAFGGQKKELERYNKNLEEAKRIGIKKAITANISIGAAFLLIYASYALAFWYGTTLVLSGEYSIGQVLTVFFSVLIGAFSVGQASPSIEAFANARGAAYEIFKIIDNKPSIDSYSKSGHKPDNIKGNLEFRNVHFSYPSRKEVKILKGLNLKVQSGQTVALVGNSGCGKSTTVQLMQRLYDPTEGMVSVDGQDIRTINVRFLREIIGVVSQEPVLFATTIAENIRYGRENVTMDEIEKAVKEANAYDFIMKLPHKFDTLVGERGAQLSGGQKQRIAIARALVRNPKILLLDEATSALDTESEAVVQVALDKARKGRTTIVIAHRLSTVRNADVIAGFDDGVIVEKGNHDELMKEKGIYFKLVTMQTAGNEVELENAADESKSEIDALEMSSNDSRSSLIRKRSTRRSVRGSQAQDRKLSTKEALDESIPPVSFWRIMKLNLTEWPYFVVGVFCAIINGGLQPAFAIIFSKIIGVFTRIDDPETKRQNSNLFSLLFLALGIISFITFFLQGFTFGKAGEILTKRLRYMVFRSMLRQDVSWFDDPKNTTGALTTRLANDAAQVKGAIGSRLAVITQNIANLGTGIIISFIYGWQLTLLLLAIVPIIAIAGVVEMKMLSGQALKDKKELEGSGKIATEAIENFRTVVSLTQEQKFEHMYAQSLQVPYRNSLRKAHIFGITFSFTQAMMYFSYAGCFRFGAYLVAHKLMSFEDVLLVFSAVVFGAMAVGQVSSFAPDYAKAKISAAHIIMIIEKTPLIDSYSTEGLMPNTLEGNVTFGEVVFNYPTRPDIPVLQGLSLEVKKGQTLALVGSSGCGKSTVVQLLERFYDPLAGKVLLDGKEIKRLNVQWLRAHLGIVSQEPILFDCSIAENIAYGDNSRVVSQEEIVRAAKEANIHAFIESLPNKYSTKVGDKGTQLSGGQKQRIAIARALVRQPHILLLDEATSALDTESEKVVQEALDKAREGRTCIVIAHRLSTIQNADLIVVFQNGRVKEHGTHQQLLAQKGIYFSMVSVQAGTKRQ

hERG = hERG (Homo sapiens, UniProt Q12809); test: hERG inhibition, IonWorks HT electrophysiology in CHO cells stably transfected with hERG
hERG, sequence (Q12809 whole entry): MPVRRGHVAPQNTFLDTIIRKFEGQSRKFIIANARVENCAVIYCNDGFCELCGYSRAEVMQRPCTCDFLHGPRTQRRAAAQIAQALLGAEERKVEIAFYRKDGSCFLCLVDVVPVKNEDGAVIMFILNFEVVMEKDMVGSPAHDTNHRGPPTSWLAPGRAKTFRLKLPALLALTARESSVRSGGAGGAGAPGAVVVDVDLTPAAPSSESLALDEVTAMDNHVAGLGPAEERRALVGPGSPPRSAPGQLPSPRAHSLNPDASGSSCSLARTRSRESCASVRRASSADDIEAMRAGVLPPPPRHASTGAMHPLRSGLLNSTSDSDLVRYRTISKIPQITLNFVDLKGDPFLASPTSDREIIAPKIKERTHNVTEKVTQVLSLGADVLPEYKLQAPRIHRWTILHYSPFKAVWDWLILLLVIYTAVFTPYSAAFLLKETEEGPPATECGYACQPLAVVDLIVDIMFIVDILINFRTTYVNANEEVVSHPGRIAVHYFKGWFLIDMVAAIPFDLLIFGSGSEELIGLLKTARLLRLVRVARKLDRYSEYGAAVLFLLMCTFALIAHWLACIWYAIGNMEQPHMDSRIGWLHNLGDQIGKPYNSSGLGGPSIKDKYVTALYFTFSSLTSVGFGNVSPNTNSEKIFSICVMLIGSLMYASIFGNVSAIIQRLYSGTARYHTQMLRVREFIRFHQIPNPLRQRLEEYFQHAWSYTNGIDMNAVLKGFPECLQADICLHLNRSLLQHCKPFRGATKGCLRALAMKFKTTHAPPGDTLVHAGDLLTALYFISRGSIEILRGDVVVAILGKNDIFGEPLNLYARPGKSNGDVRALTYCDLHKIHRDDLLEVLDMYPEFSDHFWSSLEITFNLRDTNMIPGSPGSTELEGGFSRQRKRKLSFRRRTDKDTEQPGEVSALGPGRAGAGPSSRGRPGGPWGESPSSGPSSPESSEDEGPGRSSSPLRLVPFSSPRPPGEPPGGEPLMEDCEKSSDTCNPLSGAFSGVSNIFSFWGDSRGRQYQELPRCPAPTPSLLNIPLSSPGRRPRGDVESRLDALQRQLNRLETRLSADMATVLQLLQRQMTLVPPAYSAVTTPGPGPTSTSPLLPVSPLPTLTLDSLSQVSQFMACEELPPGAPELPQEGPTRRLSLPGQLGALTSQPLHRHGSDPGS

[1] = tested on: CML colonies, secondary clonal growth; test: Replating assay (secondary clonal growth of CML colonies); format: cell-based, human; conditions: colonies from original cultures with ES-3000 @ 10 μM; 24 wells

Q: With “6,6′,7,12-tetramethoxy-2,2′-dimethyl-berbaman [ES-3000]” as the substance, how does the mean (CAMKII gamma; 10 uM ATP, inhibitor 30 uM) read?
A: 3.09

Q: What about the units (CAMKII gamma; 10 uM ATP, inhibitor 30 uM) of the same substance?
A: 2.75 units and 3.43 units

Q: And the mean (CAMKII gamma; 10 uM ATP, inhibitor 100 uM)?
A: 2.87

Q: What about the units (CAMKII gamma; 10 uM ATP, inhibitor 100 uM) of the same substance?
A: 2.5 units and 3.24 units

Q: And the mean (CAMKII gamma; 10 uM ATP, inhibitor 250 uM)?
A: 0.41

Q: What about the units (CAMKII gamma; 10 uM ATP, inhibitor 250 uM) of the same substance?
A: 0.34 units and 0.48 units

Q: What about the mean (CAMKII gamma; 50 uM ATP, inhibitor 30 uM) of the same substance?
A: 10.55

Q: And the units (CAMKII gamma; 50 uM ATP, inhibitor 30 uM)?
A: 10.4 units and 10.7 units

Q: And the mean (CAMKII gamma; 50 uM ATP, inhibitor 100 uM)?
A: 7.955

Q: What about the units (CAMKII gamma; 50 uM ATP, inhibitor 100 uM) of the same substance?
A: 8.81 units and 7.1 units

Q: And the “CAMKII gamma kinase activity inhibition, result in words” value (CAMKII gamma; 30-250 uM, 10 or 50 μM ATP)?
A: inhibited CAMKII gamma kinase activity in a dose dependent manner

Q: And the “bcr-abl and abl colonies” value (bcr-abl)?
A: No colonies scored positive for bcr-abl and abl

Q: And the β-catenin band (β-catenin; K562 cells treated with 0 to 10 uM)?
A: evident

Q: And the “convincing β-catenin band” value (β-catenin; K562 cells treated with 20 and 40 uM)?
A: absent

Q: What about the “β-catenin level, result in words” value (β-catenin; K562 cells, 0 to 40 uM, 24 hours) of the same substance?
A: lowers the β-catenin level in K562 cells in a dose dependent manner

Q: What about the “substrate of P-gp” value (P-glycoprotein (P-gp)) of the same substance?
A: not a substrate of P-gp

Q: What about the “function of P-gp” value (P-glycoprotein (P-gp); without altering the protein expression level of Pgp) of the same substance?
A: directly inhibits the function of P-gp in a dose-dependent manner

Q: What about the “plasma levels above which QT prolongation might be expected in subjects” value (hERG; interpretation from hERG IC50 and protein binding) of the same substance?
A: above 249 ng/mL

Q: What about the “safety for cardiac conduction-related toxicity (hERG IC50 versus human Cmax)” value (hERG; utilizing Cmax from previous human clinical experience) of the same substance?
A: 13 fold

Q: What about the “Replating colony count per well” value [1] of the same substance?
A: 1
